Target: T1, human IAP (Homo sapiens, UniProt P09923)
T1 construct: made in house; host or cells: COS-1 cells, transient expression from pCMV-Script; conditioned serum-free medium used as enzyme stock
T1 sequence (P09923 20-503 limits assumed): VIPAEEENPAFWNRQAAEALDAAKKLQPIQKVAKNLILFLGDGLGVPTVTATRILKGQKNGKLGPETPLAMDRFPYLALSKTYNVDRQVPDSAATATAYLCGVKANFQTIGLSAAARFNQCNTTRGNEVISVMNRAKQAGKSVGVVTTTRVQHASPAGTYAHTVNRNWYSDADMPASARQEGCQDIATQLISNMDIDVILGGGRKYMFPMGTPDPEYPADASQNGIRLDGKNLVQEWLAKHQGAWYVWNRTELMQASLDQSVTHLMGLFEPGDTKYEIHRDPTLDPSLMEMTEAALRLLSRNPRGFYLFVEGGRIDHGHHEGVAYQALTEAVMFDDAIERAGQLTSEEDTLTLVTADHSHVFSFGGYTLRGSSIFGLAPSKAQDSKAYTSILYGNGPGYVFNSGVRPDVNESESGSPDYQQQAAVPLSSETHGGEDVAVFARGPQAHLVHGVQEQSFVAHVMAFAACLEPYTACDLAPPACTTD
Assay: IAP assay using CDP-Star (chemiluminescent, dose response)
Type: biochemical
Conditions: IAP modulators, Tables A-H, positive = inhibitor; for IC50: negative Hill coefficient = activator; for n (Hill coefficient): negative = activator
Text: An expression vector pCMV-Script containing cDNA for human IAP, TNAP, PLAP, GCAP, mouse TNAP, dIAP, EAP or gIAP in secreted form (FLAG-tagged) is transfected into COS-1 cells for transient expression using a standard electroporation method. The GPI anchoring site is replaced by a FLAG sequence to make the proteins secreted into the media as well as to test their kinetics in a form immobilized by anti-FLAG antibody (Narisawa, et al, 2007). Medium is changed to serum free medium Opti-MEM (Invitrogen) 24 h later, and media containing secreted proteins was collected 66 hr after electroporation. Conditioned medium filtered by a 2 μm cellulose acetate membrane is supplemented with 0.1% BSA, aliquotted and stored at −80° C.
Human IAP is produced on a large scale to be used in the primary high throughput screening. For a maximum of 200,000 wells including a blank and negative control in each plate, approximately 1600 ml of the recombinant human IAP working solution (8 μl/well×200,000) is used. The working solution is a 1:80 dilution of the stock solution that has AP activity showing ΔOD405 (velocity) ˜300 in 5 min pNPP calorimetric assay. Therefore a minimum of 20 ml of the stock solution (1600÷80) is needed. An enzyme stock is prepared from ten 15 cm φ plates of COS-1 cells using 100 μg plasmid DNA [ten plates×(10 μg DNA/1×10^7 cells per 15 cm φ plate)].
Compound aliquots (4 μL at […] in 10% DMSO) are added to 8 μL of human IAP working solution of a the human IAP stock solution diluted 1:80 in assay buffer (250 mM DEA, pH 9.8, −2.5 mM MgCl2, −0.05 μM ZnCl2). The solution of substrate CDP-Star, disodium 2-chloro-5-(4-methoxyspiro{1,2-dioxetane-3,2′(5′-chloro)-tricyclo[3.3.1.1]3,7 decan}-4-yl)-1-phenyl phosphate (New England Biolabs), (8 μL of 125 μM in water) is added to each well. […] Dispensing of human IAP working solution and CDP-Star is processed using a WellMate bulk dispenser (Matrix). Plates (white 384-well small volume Greiner 784075) are incubated at room temperature for 30 min, and the luminescence signal is measured using a PerkinElmer EnVision multi-mode plate reader. L-Phenylalanine (1 mM final concentration) and 2% DMSO is utilized as an inhibition control and blank, respectively. Data analysis is processed using CBIS software (ChemInnovations, Inc).
The compound is diluted ([…] to 0.03 mM) and incubated with the human IAP enzyme for 30 min prior to addition of substrate. At the same time, human TNAP, human PLAP, human GCAP, mouse TNAP, mouse dIAP, mouse EAP and mouse gIAP is tested to determine enzyme specificity.

| Structure (SMILES) | IC50 [µM] | n (Hill coefficient) |
| --- | --- | --- |
| Nc1nc(N2C(=O)C3CC=CCC3C2=O)nn1-c1ccccc1 (stereo not shown) [Compound F12, 2-(5-amino-1-phenyl-1H-1,2,4-triazol-3-yl)-3a,4,7,7a-tetrahydro-1H-isoindole-1,3(2H)-dione] | > 100 |  |
| COc1ccc(-c2nnc3oc(O)cc(C)c2-3)cc1 [Compound E5, 3-(4-methoxyphenyl)-4-methylpyrano[2,3-c]prazol-6-ol] | 21.1 | −1.89 |
| Cc1cc(O)oc2nnc(-c3ccccc3)c1-2 [Compound E6, 4-methyl-3-phenylpyrano[2,3-c]pyrazol-6-ol] | 62.7 | −5 |
| COC(=O)c1cc(-c2ccc(C)cc2C)n[nH]1 [Compound B13, methyl 3-(2,4-dimethylphenyl)-1H-pyrazole-5-carboxylate] | 66.1 | −3.035 |
| O=C1C2CC=CCC2C(=O)N1c1nc(-c2ccccc2)n[nH]1 (stereo not shown) [Compound F5, 2-(3-phenyl-1H-1,2,4-triazol-5-yl)-3a,4,7,7a-tetrahydro-1H-isoindole-1,3(2H)-dione] | 0.0625 | 0.8895 |
| O=C(O)c1cc(-c2ccc(F)cc2)n[nH]1 [Compound B4, 3-(4-fluorophenyl)-1H-pyrazole-5-carboxylic acid] | > 100 |  |
| Cc1ccccc1S(=O)(=O)Nc1cc2ccccc2nc1Cl [Compound G6, N-(2-chloroquinolin-3-yl)-2-methylbenzenesulfonamide] | > 100 |  |
| COC(=O)c1cc(-c2ccc(Br)cc2)n[nH]1 [Compound A7, methyl 5-(4-bromophenyl)-1H-pyrazole-3-carboxylate] | > 100 |  |
| COC(=O)c1cc(-c2ccc(Cl)cc2Cl)n[nH]1 [Compound B12, methyl 3-(2,4-dichlorophenyl)-1H-pyrazole-5-carboxylate] | 9.32 | −1.3 |
| Cc1ccc(-c2cc(C(=O)O)[nH]n2)c(C)c1 [Compound B7, 3-(2,4-dimethylphenyl)-1H-pyrazole-5-carboxylic acid] | > 100 |  |
| O=C(O)c1cc(-c2ccc(Cl)cc2)n[nH]1 [Compound A2, 5-(4-chlorophenyl)-1H-pyrazole-3-carboxylic acid] | > 100 |  |
| O=C1C2C3C=CC(C3)C2C(=O)N1c1nc(CCc2ccccc2)n[nH]1 (stereo not shown) [Compound F10] |  | 0.871 |
| Cc1c(-c2ccccc2)n[nH]c1C(=O)O [Compound D3, 4-methyl-5-phenyl-1H-pyrazole-3-carboxylic acid] | > 100 |  |
| COc1ccc(Br)cc1S(=O)(=O)Nc1cnc2ccccc2c1 [Compound G1, 5-bromo-2-methoxy-N-(quinolin-3-yl)benzenesulfonamide] |  | 0.716 |
| COC(=O)c1cc(-c2ccccc2)n[nH]1 [Compound A8, methyl 5-phenyl-1H-pyrazole-3-carboxylate] | > 100 |  |
| O=C1C2CC=CCC2C(=O)N1c1ncn[nH]1 (stereo not shown) [Compound F4, 2-(1H-1,2,4-triazol-5-yl)-3a,4,7,7a-tetrahydro-1H-isoindole-1,3(2H)-dione] | 34.5 | −1.61 |
| CC(C)c1ccc(-c2cc(C(=O)O)[nH]n2)cc1 [Compound B3, 3-(4-isopropylphenyl)-1H-pyrazole-5-carboxylic acid] | 98.3 | −4.38 |
| COc1ccc(OC)c(S(=O)(=O)Nc2cnc3ccccc3c2)c1 [Compound G2, 2,5-dimethoxy-N-(quinolin-3-yl)benzenesulfonamide] | > 100 |  |

| Structure (SMILES) | IC50 [µM] | n (Hill coefficient) |
| --- | --- | --- |
| O=C1C2CC=CCC2C(=O)N1c1nc(CCc2ccccc2)n[nH]1 (stereo not shown) [Compound F9, 2-(3-phenethyl-1H-1,2,4-triazol-5-yl)-3a,4,7,7a-tetrahydro-1H-isoindole-1,3(2H)-dione] | 0.724 | 0.616 |
| O=C(O)c1[nH]nc2c1COc1ccccc1-2 [Compound E1, 2,4-dihydrochromeno[3,4-c]pyrazole-3-carboxylic acid] | 13.9 | 0.533 |
| CCCCOc1ccc(-c2cc(C(=O)OC)[nH]n2)cc1 [Compound B15, methyl 3-(4-butoxyphenyl)-1H-pyrazole-5-carboxylate] | > 100 |  |
| O=C1C2CCCCC2C(=O)N1c1nc(CCc2ccccc2)n[nH]1 (stereo not shown) [Compound F3, 2-(3-phenethyl-1H-1,2,4-triazol-5-yl)-hexahydro-1H-isoindole-1,3(2H)-dione] | 1.75 | 0.694 |
| CCOC(=O)c1cc(-c2ccc3c(c2)OCCO3)n[nH]1 [Compound B16, ethyl 3-(2,3-dihydrobenzo[b][1,4]dioxyin-6-yl)-1H-pyrazole-5-carboxylate] | > 100 |  |
| O=C1C2CC=CCC2C(=O)N1c1nc(Cc2ccccc2)n[nH]1 (stereo not shown) [Compound F8, 2-(3-benzyl-1H-1,2,4-triazol-5-yl)-3a,4,7,7a-tetrahydro-1H-isoindole-1,3(2H)-dione] | 0.503 | 1.28 |
| CCOc1ccc(Cl)cc1S(=O)(=O)Nc1cccnc1 [Compound G3, 5-chloro-2-ethoxy-N-(pyridin-3-yl)benzenesulfonamide] | > 100 |  |
| COC(=O)c1cc(-c2ccc(OC)cc2)[nH]n1 [Compound B14, methyl 3-(4-methoxyphenyl)-1H-pyrazole-5-carboxylate] | > 100 |  |
| COC(=O)c1cc(-c2ccc3ccccc3c2)[nH]n1 [Compound C1, methyl 3-(nahthylen-2-yl)-1H-pyrazole-5-carboxylate] | > 100 |  |
| CN(C(=O)COC(=O)c1cc(-c2ccc(Br)cc2)[nH]n1)C1CCCCC1 [Compound A11, 2-[cyclohexyl(methyl)amino]-2-oxoethyl 5-(4-bromophenyl)-1H-pyrazole-3-carboxylate] | > 100 |  |
| COc1cc(C)c(Cl)cc1S(=O)(=O)Nc1cccnc1 [Compound G4, 2-methoxy-4-methyl-5-chloro-N-(pyridin-3-yl)benzenesulfonamide] | > 100 |  |
| O=C1C2CCCCC2C(=O)N1c1nc(Cc2ccccc2)n[nH]1 (stereo not shown) [Compound F2, 2-(3-benzyl-1H-1,2,4-triazol-5-yl)-hexahydro-1H-isoindole-1,3(2H)-dione] | 0.0613 | 1.01 |
| O=C1C2CC=CCC2C(=O)N1c1nc(-c2ccco2)n[nH]1 (stereo not shown) [Compound F6, 2-[3-(furan-2-yl)-1H-1,2,4-triazol-5-yl]-3a,4,7,7a-tetrahydro-1H-isoindole-1,3(2H)-dione] | 0.411 | 0.894 |
| CCOc1ccc(-c2cc(C(=O)O)[nH]n2)cc1 [Compound B9, 3-(4-ethoxyphenyl)-1H-pyrazole-5-carboxylic acid] | > 100 |  |
| Cn1nc(C(=O)O)cc1-c1ccc(F)cc1 [Compound D2, 5-(4-fluorophenyl)-1-methyl 1H-pyrazole-3 carboxylic acid] | > 100 |  |
| O=C(O)c1cc(-c2ccccc2Cl)[nH]n1 [Compound A1, 5-(2-chlorophenyl)-1H-pyrazole-3-carboxylic acid] |  | 0.9625 |
| COc1ccc(-c2cc(C(=O)O)n[nH]2)cc1 [Compound A3, 5-(4-methoxyphenyl)-1H-pyrazole-3-carboxylic acid] | > 100 |  |
| COC(=O)c1cc(-c2ccc(C)cc2)[nH]n1 [Compound A9, methyl 5-(4-methylphenyl)-1H-pyrazole-3-carboxylate] | > 100 |  |
